The target in test [1] is T1, wt human TYK2, catalytic site (Homo sapiens, UniProt P29597).
T1 construct: wt human TYK2, catalytic site; purchased SignalChem
T1 sequence (P29597 897-1176 limits assumed): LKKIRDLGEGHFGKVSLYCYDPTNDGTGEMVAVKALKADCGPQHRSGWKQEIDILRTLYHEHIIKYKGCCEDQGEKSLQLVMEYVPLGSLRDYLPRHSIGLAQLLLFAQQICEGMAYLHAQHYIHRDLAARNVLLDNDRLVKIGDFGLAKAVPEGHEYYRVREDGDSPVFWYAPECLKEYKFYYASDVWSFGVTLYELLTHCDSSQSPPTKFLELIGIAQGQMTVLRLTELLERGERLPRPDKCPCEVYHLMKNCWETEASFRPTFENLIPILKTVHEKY
Nature of the test: HTRF KinEASE assay, TYK2. Type of test: biochemical. As to conditions: 1 μM ATP; read-out: IC50, Activity Toward TYK2. The essentials: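 Kinase reaction run at room temperature for at least 30 min: 2 nM TYK2 with 1 μM ATP, or 1 nM JAK2 with 100 μM ATP, each with 1 μM biotin-TK substrate. Phosphorylation detected by HTRF (60 min antibody/XL665) and evaluated from emission ratios.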

The target of test [2] is T2, wt human LRRK2, catalytic site (Homo sapiens, UniProt Q5S007).
T2 construct: 5 nM wt human LRRK2, catalytic site; purchased ThermoFisher
Briefly: TR-FRET LanthaScreen Eu Kinase Binding Assay, LRRK2 wt. As to conditions: one range stated for wt and G2019, read-out: IC50, Activity Toward LRRK2(Wt). The procedure, abridged:
(§1)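 Each kinase was incubated with compound, 2 nM europium-labelled antibody and Tracer 236 for one hour at room temperature before plate reading. LRRK2 wt and G2019S used 5 nM protein and 10 nM tracer; NUAK1 used 8 nM protein and 5 nM tracer.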

For test [3], the target named is T3, G2019S human LRRK2, catalytic site (Homo sapiens, UniProt Q5S007, G2019S).
T3 construct: G2019S human LRRK2, catalytic site; purchased ThermoFisher
Briefly: TR-FRET LanthaScreen Eu Kinase Binding Assay, LRRK2 G2019S. As to conditions: LRRK2(G2019); one range stated for wt and G2019; read-out: IC50, Activity Toward LRRK2(G2019). The procedure, abridged: as §1

For test [4], the target named is T4, wt human NUAK1, full length (Homo sapiens, UniProt O60285).
T4 construct: 8 nM wt human NUAK1, full length (ThermoFisher/USA); purchased ThermoFisher
T4 sequence (O60285 1-661): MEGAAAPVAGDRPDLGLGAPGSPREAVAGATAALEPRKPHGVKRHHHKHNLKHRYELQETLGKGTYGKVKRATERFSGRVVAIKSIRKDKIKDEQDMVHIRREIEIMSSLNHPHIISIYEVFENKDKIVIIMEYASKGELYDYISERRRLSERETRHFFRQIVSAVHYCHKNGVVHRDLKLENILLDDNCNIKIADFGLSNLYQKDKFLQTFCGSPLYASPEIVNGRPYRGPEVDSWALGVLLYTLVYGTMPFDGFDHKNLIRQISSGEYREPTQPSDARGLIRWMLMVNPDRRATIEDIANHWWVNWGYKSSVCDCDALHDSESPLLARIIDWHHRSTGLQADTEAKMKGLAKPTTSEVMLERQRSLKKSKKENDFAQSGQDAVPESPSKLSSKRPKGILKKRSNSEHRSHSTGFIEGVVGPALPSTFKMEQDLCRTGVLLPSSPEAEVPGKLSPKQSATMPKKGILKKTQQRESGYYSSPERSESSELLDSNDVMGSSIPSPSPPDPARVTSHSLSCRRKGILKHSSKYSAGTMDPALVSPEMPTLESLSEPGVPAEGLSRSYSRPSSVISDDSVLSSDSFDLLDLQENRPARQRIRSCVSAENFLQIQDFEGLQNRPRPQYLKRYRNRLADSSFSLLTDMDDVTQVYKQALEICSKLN
Nature of the test: TR-FRET LanthaScreen Eu Kinase Binding Assay, NUAK1. As to conditions: read-out: IC50, Activity Toward NUAK1. The method, then: The basic protocol for TR-FRET LanthaScreen Eu Kinase Binding Assay inhibitor studies were performed as follows. LanthaScreen Kinase Binding Assays (ThermoFisher/USA) to evaluate inhibitors were performed by addition of 5 μL of test compound in corresponding DMSO dilutions/5 μl of kinase/antibody mixture, 5 μL of tracer into 384 well small volume plates. After incubation for 1 hour at room temperature, plates were read. Data analysis of emission ratios was according LanthaScreen Eu Kinase Binding Assay protocol.
Kinase and assay components were adjusted to final concentrations according to kit protocol. For LRRK2: 5 nM wt human LRRK2, catalytic site, or G2019S human LRRK2, catalytic site (ThermoFisher/USA), 2 nM Eu-Anti-GST Antibody, 10 nM Kinase Tracer 236 in 1× Kinase Buffer A. For NUAK1: 8 nM wt human NUAK1, full length (ThermoFisher/USA), 2 nM Eu-Anti-His Antibody, 5 nM Kinase Tracer 236 in 1× Kinase Buffer A.

The target in test [5] is T5, wt human JAK1, catalytic site (Homo sapiens, UniProt P23458).
T5 construct: wt human JAK1, catalytic site; purchased ThermoFisher
Nature of the test: HTRF KinEASE assay, JAK1. Format: biochemical. The conditions noted are these: 2.5 μM ATP; read-out: IC50, Activity Toward JAK1. The procedure, abridged: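 Compounds in DMSO dilution were mixed with kinase, biotin-TK substrate and ATP and reacted for ≥30 min at room temperature. Detection reagents (antibody, streptavidin-XL665) were read 60 min later as HTRF, with emission ratios analysed per KinEASE protocol.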

Molecules are shown by their SMILES.

T2 sequence (Q5S007 970-2527 limits assumed): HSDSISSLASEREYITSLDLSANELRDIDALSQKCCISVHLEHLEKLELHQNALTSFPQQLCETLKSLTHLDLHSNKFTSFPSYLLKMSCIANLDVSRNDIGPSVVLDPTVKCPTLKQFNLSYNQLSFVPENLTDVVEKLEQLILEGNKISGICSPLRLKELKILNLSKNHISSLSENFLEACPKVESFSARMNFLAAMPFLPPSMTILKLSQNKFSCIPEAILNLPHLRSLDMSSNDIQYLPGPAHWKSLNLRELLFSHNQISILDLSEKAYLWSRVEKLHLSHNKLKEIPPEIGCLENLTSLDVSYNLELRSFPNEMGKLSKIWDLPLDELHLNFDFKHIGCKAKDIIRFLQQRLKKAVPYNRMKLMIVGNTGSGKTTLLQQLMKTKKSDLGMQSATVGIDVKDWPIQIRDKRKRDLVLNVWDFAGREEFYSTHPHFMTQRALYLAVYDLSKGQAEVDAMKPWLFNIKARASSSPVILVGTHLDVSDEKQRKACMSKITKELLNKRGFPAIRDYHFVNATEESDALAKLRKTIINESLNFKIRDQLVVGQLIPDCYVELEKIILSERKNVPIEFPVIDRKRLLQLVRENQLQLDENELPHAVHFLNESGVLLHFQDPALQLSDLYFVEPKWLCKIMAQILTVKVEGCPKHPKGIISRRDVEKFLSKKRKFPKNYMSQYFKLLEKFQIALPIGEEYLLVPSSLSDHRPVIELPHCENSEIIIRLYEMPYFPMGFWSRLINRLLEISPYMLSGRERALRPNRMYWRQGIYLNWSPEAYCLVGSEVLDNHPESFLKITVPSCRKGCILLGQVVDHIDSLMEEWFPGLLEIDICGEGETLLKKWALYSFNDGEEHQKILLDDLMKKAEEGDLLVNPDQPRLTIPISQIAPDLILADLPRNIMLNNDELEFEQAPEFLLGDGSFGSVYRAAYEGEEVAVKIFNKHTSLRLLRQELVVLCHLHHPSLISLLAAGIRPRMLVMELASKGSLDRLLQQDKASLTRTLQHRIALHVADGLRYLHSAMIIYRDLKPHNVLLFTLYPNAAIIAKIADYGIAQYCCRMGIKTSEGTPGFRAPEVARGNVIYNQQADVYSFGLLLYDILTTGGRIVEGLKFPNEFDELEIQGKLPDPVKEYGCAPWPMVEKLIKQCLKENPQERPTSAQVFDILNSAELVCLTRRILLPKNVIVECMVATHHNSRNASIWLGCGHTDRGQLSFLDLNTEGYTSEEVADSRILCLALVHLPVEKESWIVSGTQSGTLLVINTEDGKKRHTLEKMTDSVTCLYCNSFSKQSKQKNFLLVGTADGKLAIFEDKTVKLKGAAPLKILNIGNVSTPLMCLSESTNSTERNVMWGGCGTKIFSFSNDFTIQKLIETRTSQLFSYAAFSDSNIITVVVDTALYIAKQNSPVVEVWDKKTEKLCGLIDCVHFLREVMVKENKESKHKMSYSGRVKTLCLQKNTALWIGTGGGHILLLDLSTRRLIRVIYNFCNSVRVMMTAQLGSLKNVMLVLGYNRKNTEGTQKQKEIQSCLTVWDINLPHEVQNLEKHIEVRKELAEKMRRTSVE
T5 sequence (P23458 875-1153 limits assumed): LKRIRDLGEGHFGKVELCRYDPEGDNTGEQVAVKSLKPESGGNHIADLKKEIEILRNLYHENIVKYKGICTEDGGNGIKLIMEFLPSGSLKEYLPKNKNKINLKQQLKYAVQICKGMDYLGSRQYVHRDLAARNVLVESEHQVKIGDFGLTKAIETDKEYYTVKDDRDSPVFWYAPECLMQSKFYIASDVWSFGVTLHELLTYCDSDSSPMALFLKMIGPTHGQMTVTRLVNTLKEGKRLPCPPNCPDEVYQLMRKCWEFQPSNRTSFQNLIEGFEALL
T3 sequence (Q5S007 970-2527 G2019S limits assumed): as the sequence (Q5S007 970-2527 limits assumed) above, with G1050S counted along it

In the case of `Cc1cc(Nc2cn(-c3c(F)cccc3F)nc2C(N)=O)ncn1` [compound 4, 1-(2,6-difluorophenyl)-4-((6-methylpyrimidin-4-yl)amino)-1H-pyrazole-3-carboxamide], the IC50 in test [1], in test [2], in test [3] and in test [4] was 100 to 1000 nM each time.

`NC(=O)c1nn(-c2c(F)cccc2F)cc1Nc1ccccn1` [compound 7, 1-(2,6-difluorophenyl)-4-(pyridin-2-ylamino)-1H-pyrazole-3-carboxamide]: the IC50 in test [1], in test [2], in test [3] and in test [4] was 100 to 1000 nM throughout.

Regarding `Cc1cc(Nc2cn(-c3c(F)cccc3F)nc2C(N)=O)nc(N)n1` [compound 8, 4-((2-amino-6-methylpyrimidin-4-yl)amino)-1-(2,6-difluorophenyl)-1H-pyrazole-3-carboxamide], the IC50 lay in the range of 100 to 1000 nM in test [1]; 100 to 1000 nM in test [2]; 100 to 1000 nM in test [3]; 10 to 100 nM in test [4]; 100 to 1000 nM in test [5].

`NC(=O)c1nn(-c2c(F)cccc2F)cc1Nc1ccc(C(=O)NCC(F)(F)F)cc1` [compound 14, 1-(2,6-difluorophenyl)-4-((4-((2,2,2-trifluoroethyl)carbamoyl)phenyl)amino)-1H-pyrazole-3-carboxamide]: the IC50 in test [1] was in the range of 10 to 100 nM; in test [2], 100 to 1000 nM; in test [3] it was 100 to 1000 nM; in test [4], 10 to 100 nM; in test [5] it was 100 to 1000 nM.

As for `CC(C)(C)NC(=O)c1ccc(Nc2cn(-c3c(F)cccc3F)nc2C(N)=O)cc1` [compound 15, 4-((4-(tert-butylcarbamoyl)phenyl)amino)-1-(2,6-difluorophenyl)-1H-pyrazole-3-carboxamide], the IC50 is 10 to 100 nM in test [1]; 100 to 1000 nM in test [2]; 100 to 1000 nM in test [3]; 100 to 1000 nM in test [4]; 100 to 1000 nM in test [5].

For the compound `CCNC(=O)c1ccc(Nc2cn(-c3c(F)cccc3F)nc2C(N)=O)cc1` [compound 16, 1-(2,6-difluorophenyl)-4-((4-(ethylcarbamoyl)phenyl)amino)-1H-pyrazole-3-carboxamide], the IC50 is 10 to 100 nM in test [1]; 100 to 1000 nM in test [2]; 100 to 1000 nM in test [3]; 100 to 1000 nM in test [4]; 100 to 1000 nM in test [5].

Take `CC(C)(C)NC(=O)c1ccc(Nc2cn(-c3c(F)cccc3Cl)nc2C(N)=O)cc1` [compound 27, 4-((4-(tert-butylcarbamoyl)phenyl)amino)-1-(2-chloro-6-fluorophenyl)-1H-pyrazole-3-carboxamide]: the IC50 is 10 to 100 nM in test [1]; 100 to 1000 nM in test [2]; 100 to 1000 nM in test [3]; 100 to 1000 nM in test [4]; 100 to 1000 nM in test [5].

Take `NC(=O)c1nn(-c2c(F)cccc2F)cc1Nc1ccc(C(=O)N2CCOCC2)nc1` [compound 30, 1-(2,6-difluorophenyl)-4-((6-(morpholine-4-carbonyl)pyridin-3-yl)amino)-1H-pyrazole-3-carboxamide]: the IC50 in test [1] was in the range of 10 to 100 nM; in test [2], 100 to 1000 nM; in test [3], 100 to 1000 nM; in test [4], 100 to 1000 nM; in test [5] it was 100 to 1000 nM.

On to `CN1CCC(NC(=O)c2ccc(Nc3cn(-c4c(Cl)cccc4Cl)nc3C(N)=O)cc2)CC1` [compound 31, 1-(2,6-dichlorophenyl)-4-((4-((1-methylpiperidin-4-yl)carbamoyl)phenyl)amino)-1H-pyrazole-3-carboxamide], for which the IC50 is 10 to 100 nM in test [1]; 100 to 1000 nM in test [2]; 100 to 1000 nM in test [3]; 100 to 1000 nM in test [4]; 10 to 100 nM in test [5].

In the case of `CN(C)[C@H]1CCN(C(=O)c2ccc(Nc3cn(-c4c(Cl)cccc4Cl)nc3C(N)=O)cc2)C1` [compound 314, (S)-1-(2,6-dichlorophenyl)-4-((4-(3-(dimethylamino)pyrrolidine-1-carbonyl)phenyl)amino)-1H-pyrazole-3-carboxamide], the IC50 in test [1] was less than 10 nM; in test [4], 100 to 1000 nM; in test [5], 10 to 100 nM.

As for `NC(=O)c1nn(-c2c(Cl)cccc2Cl)cc1Nc1ccc(C(=O)N2CC[C@H](N)C2)cc1` [compound 319, (S)-4-((4-(3-aminopyrrolidine-1-carbonyl)phenyl)amino)-1-(2,6-dichlorophenyl)-1H-pyrazole-3-carboxamide], the values for the IC50 in test [1], in test [4] and in test [5] were 10 to 100 nM, 100 to 1000 nM and 10 to 100 nM, respectively.

In the case of `COCCc1ncnn1-c1ccc(Nc2cn(-c3c(Cl)cccc3Cl)nc2C(N)=O)cc1` [compound 327, 1-(2,6-dichlorophenyl)-4-((4-(5-(2-methoxyethyl)-1H-1,2,4-triazol-1-yl)phenyl)amino)-1H-pyrazole-3-carboxamide], the IC50 in test [1] lay in the range of 10 to 100 nM; in test [4], 100 to 1000 nM; in test [5], 10 to 100 nM.

In the case of `NC(=O)c1nn(-c2c(Cl)cccc2Cl)cc1Nc1ccc(C(=O)N2CC[C@H](N3CCCC3)C2)cc1` [compound 332, (S)-4-((4-([1,3′-bipyrrolidine]-1′-carbonyl)phenyl)amino)-1-(2,6-dichlorophenyl)-1H-pyrazole-3-carboxamide], the IC50 is less than 10 nM in test [1], 100 to 1000 nM in test [4] and 100 to 1000 nM in test [5].

On to `NC(=O)c1nn(-c2c(Cl)cccc2Cl)cc1Nc1ccc(-c2nc(C(F)(F)F)cn2CCO)cc1` [compound 338, 1-(2,6-dichlorophenyl)-4-((4-(1-(2-hydroxyethyl)-4-(trifluoromethyl)-1H-imidazol-2-yl)phenyl)amino)-1H-pyrazole-3-carboxamide], for which the IC50 in test [1] is less than 10 nM; in test [4], 100 to 1000 nM; in test [5], 100 to 1000 nM.

For the compound `NC(=O)c1nn(-c2c(Cl)cccc2Cl)cc1Nc1cn[nH]c1` [compound 407, 4-((1H-pyrazol-4-yl)amino)-1-(2,6-dichlorophenyl)-1H-pyrazole-3-carboxamide], the IC50 in test [1], in test [4] and in test [5] was 100 to 1000 nM in each case.

On to `NC(=O)c1nn(-c2c(Cl)cccc2Cl)cc1Nc1ccc(OC2CCNCC2)cc1` [compound 424, 1-(2,6-dichlorophenyl)-4-((4-(piperidin-4-yloxy)phenyl)amino)-1H-pyrazole-3-carboxamide], for which the IC50 is 10 to 100 nM in test [1], 100 to 1000 nM in test [4] and 100 to 1000 nM in test [5].

These data come from US20230373985A1 (Origenis Gmbh, priority 2020, published 2023).
